Source: ChEMBL document CHEMBL1201862, “PubChem BioAssay data set” (2004)
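96-well plates; 48 h exposure; 5 concentrations. Endpoints by linear interpolation between flanking doses. Not reached: highest tested concentration assigned. The concentration for 50% growth inhibition is given as GI50.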 Calls of active or inactive are those of the source. Rule as the data show it: active = GI50 up to about 1.1 µM and inactive = higher.

Key:
Experiment in all cases: DTP human tumour cell line panel, 48 h
[1] = system: M19-MEL
[2] = system: DMS-273
[3] = system: DLD-1
[4] = system: HOP-18
[5] = system: DMS-114
[6] = system: LXFL 529
[7] = system: XF498
[8] = system: KM-20L2
[9] = system: RXF 631

Structure (SMILES)	GI50 [1]	GI50 [2]	GI50 [3]	GI50 [4]	GI50 [5]	GI50 [6]	GI50 [7]	GI50 [8]	GI50 [9]
N#CC1=C(N)Oc2c(ccc3cccnc23)C1c1ccccc1 (configuration not stated)	1.67 µM (inactive)	0.445 µM (active)	2.3 µM (inactive)	> 100 µM (inactive)	0.914 µM (active)	1.7 µM (inactive)	7.98 µM (inactive)	0.555 µM (active)	–
CN(C)c1ccc(/C=C2\C=Cc3ccccc32)cc1	> 100 µM (inactive)	36.7 µM (inactive)	51.8 µM (inactive)	> 100 µM (inactive)	22.1 µM (inactive)	56.4 µM (inactive)	–	42.6 µM (inactive)	–
CCOC(=O)NC(=O)c1cn(CCCOC(=O)CCCCCCCCC(=O)OCCCn2cc(C(=O)NC(=O)OCC)c(=O)n(C)c2=O)c(=O)n(C)c1=O	> 100 µM (inactive)	> 100 µM (inactive)	> 100 µM (inactive)	> 100 µM (inactive)	> 100 µM (inactive)	> 100 µM (inactive)	> 54.3 µM (inactive)	> 100 µM (inactive)	> 80.7 µM (inactive)
COC(=O)c1ccc(C(=O)OC)c2nc3cc(Cl)ccc3nc12	> 100 µM (inactive)	> 100 µM (inactive)	> 100 µM (inactive)	> 100 µM (inactive)	> 100 µM (inactive)	> 100 µM (inactive)	> 100 µM (inactive)	> 100 µM (inactive)	> 100 µM (inactive)
CNS(=O)(=O)NNS(=O)(=O)c1cccc([N+](=O)[O-])c1	> 100 µM (inactive)	> 100 µM (inactive)	> 100 µM (inactive)	–	> 100 µM (inactive)	> 100 µM (inactive)	–	> 100 µM (inactive)	–
CC1(O)CC2(O)C=CC3=C(C(=O)c4cccc(O)c4C3=O)C2(O)C(=O)C1O (configuration not stated)	0.646 µM (active)	5.08 µM (inactive)	0.791 µM (active)	1.7 µM (inactive)	1.67 µM (inactive)	0.495 µM (active)	–	1.16 µM (inactive)	–
CN(C)CCSc1nccc(-c2cc3ccccc3s2)n1	–	15.9 µM (inactive)	32.6 µM (inactive)	< 0.01 µM (active)	23.2 µM (inactive)	16.8 µM (inactive)	–	–	–
CCOC(=O)C1=C(C)N(NC(=O)Nc2ccccc2)C2(N)N(NC(=O)Nc3ccccc3)C(C)=C(C(=O)OCC)C12C#N (configuration not stated)	17.8 µM (inactive)	17 µM (inactive)	19.4 µM (inactive)	16.3 µM (inactive)	16.1 µM (inactive)	18.6 µM (inactive)	–	18.7 µM (inactive)	–
Cc1nc(O)nc(CC(O)(c2ccccc2)c2ccccc2)c1-c1ccccc1	> 100 µM (inactive)	> 100 µM (inactive)	> 100 µM (inactive)	> 100 µM (inactive)	80.5 µM (inactive)	> 100 µM (inactive)	–	> 100 µM (inactive)	> 100 µM (inactive)
Cc1nc(Nc2ccccc2)sc1C(=O)CC(=O)C(=O)NC12CC3CC(CC(C3)C1)C2	> 100 µM (inactive)	> 100 µM (inactive)	80.5 µM (inactive)	> 100 µM (inactive)	78.7 µM (inactive)	99.5 µM (inactive)	> 100 µM (inactive)	80.7 µM (inactive)	–
Cn1c2cc([N+](=O)[O-])ccc2c(=O)c2c(O)cc3c(c21)C=CC(C)(C)O3	–	54 µM (inactive)	> 100 µM (inactive)	< 0.01 µM (active)	–	28.4 µM (inactive)	21 µM (inactive)	> 100 µM (inactive)	–
COc1ccc(/C=N/NC(=O)NCCNCCO)cc1	> 100 µM (inactive)	> 100 µM (inactive)	> 100 µM (inactive)	> 100 µM (inactive)	> 100 µM (inactive)	> 100 µM (inactive)	–	> 100 µM (inactive)	–
CCCC/C=C1\CCC(CN2CCCC2)C1=O (configuration not stated)	16.9 µM (inactive)	16.7 µM (inactive)	3.76 µM (inactive)	–	15.9 µM (inactive)	1.56 µM (inactive)	16.1 µM (inactive)	14.7 µM (inactive)	17.7 µM (inactive)
N#Cc1ccc(Nc2cnc3cc(N)ccc3n2)cc1	89.7 µM (inactive)	> 100 µM (inactive)	> 100 µM (inactive)	–	60.5 µM (inactive)	59.7 µM (inactive)	74.6 µM (inactive)	94 µM (inactive)	–
Cc1ccc(/C=C/C(=O)c2sc(-c3cccnc3)nc2C)cc1	> 100 µM (inactive)	> 100 µM (inactive)	> 100 µM (inactive)	> 100 µM (inactive)	–	–	–	> 100 µM (inactive)	> 100 µM (inactive)
NCCNc1cccc2ccccc12	> 100 µM (inactive)	> 100 µM (inactive)	> 100 µM (inactive)	> 100 µM (inactive)	> 100 µM (inactive)	> 100 µM (inactive)	–	> 100 µM (inactive)	> 100 µM (inactive)

Structure (SMILES)	GI50 [1]	GI50 [2]	GI50 [3]	GI50 [4]	GI50 [5]	GI50 [6]	GI50 [7]	GI50 [8]	GI50 [9]
Cc1nc2c(n1CC(C)(C)C)C(=O)c1ccccc1C2=O	–	76.9 µM (inactive)	> 100 µM (inactive)	–	–	> 100 µM (inactive)	> 100 µM (inactive)	> 100 µM (inactive)	–
C/C(CC(=O)Nc1ccc(C)c(C)c1)=N\NC(N)=O	> 100 µM (inactive)	–	> 100 µM (inactive)	–	> 100 µM (inactive)	> 100 µM (inactive)	–	> 100 µM (inactive)	–
Cc1nc2nnc(C)n2c2c1C(=O)Nc1ccccc1N2	> 100 µM (inactive)	> 100 µM (inactive)	> 100 µM (inactive)	> 100 µM (inactive)	> 100 µM (inactive)	> 100 µM (inactive)	> 100 µM (inactive)	> 100 µM (inactive)	–
N=C(NNS(=O)(=O)c1ccccc1)Oc1ccc(Br)cc1Br	> 100 µM (inactive)	> 100 µM (inactive)	> 100 µM (inactive)	> 100 µM (inactive)	> 100 µM (inactive)	> 100 µM (inactive)	> 100 µM (inactive)	> 100 µM (inactive)	> 100 µM (inactive)
CCOC(=O)[C@H]1Nc2ccc(OC)cc2C2c3ccccc3CC21 (some centres not stated)	> 100 µM (inactive)	> 100 µM (inactive)	> 100 µM (inactive)	–	> 100 µM (inactive)	> 100 µM (inactive)	> 100 µM (inactive)	> 100 µM (inactive)	> 100 µM (inactive)
OCCN(CCO)c1ncnc2c1sc(=S)n2-c1ccccc1	> 100 µM (inactive)	> 100 µM (inactive)	> 100 µM (inactive)	> 100 µM (inactive)	> 100 µM (inactive)	> 100 µM (inactive)	> 100 µM (inactive)	> 100 µM (inactive)	–
CC1=NN(C(=O)c2ccncc2)C(=O)C1/N=N/c1ccc(F)cc1 (configuration not stated)	> 100 µM (inactive)	92.5 µM (inactive)	> 100 µM (inactive)	–	> 100 µM (inactive)	> 100 µM (inactive)	> 100 µM (inactive)	> 100 µM (inactive)	–
CCOC(=O)C12CCSC1C1(C#N)C(C#N)=CC2(N=P(c2ccccc2)(c2ccccc2)c2ccccc2)n2c(=O)n(-c3ccccc3)c(=O)n21 (configuration not stated)	33.4 µM (inactive)	–	35.9 µM (inactive)	–	29.4 µM (inactive)	28.8 µM (inactive)	24.3 µM (inactive)	65 µM (inactive)	70 µM (inactive)
OC1CC1Sc1ccccc1 (configuration not stated)	32.9 µM (inactive)	33 µM (inactive)	29.8 µM (inactive)	–	24.7 µM (inactive)	22.8 µM (inactive)	79.8 µM (inactive)	–	39.9 µM (inactive)
Cc1cc2c(c(C(N)=O)c1C)-c1cc(Cl)cc(Cl)c1C2=O	> 100 µM (inactive)	> 100 µM (inactive)	> 100 µM (inactive)	> 100 µM (inactive)	> 100 µM (inactive)	> 100 µM (inactive)	–	> 100 µM (inactive)	–
COc1cc2c(cc1OC)C(Cc1ccc(Oc3cc(CC4c5cc(OC)c(OC)cc5CCN4C)ccc3O)cc1)N(C)CC2 (configuration not stated)	21 µM (inactive)	21.7 µM (inactive)	18.7 µM (inactive)	26.5 µM (inactive)	16.3 µM (inactive)	14.8 µM (inactive)	18.3 µM (inactive)	13.1 µM (inactive)	–
CC[C@@]1(OC(=O)CCC(=O)O)C(=O)OCc2c1cc1n(c2=O)Cc2cc3ccccc3nc2-1	0.239 µM (active)	< 0.0203 µM (active)	1.58 µM (inactive)	0.492 µM (active)	0.046 µM (active)	2.01 µM (inactive)	0.497 µM (active)	0.979 µM (active)	0.427 µM (active)
[N-]=[N+]=NC12CC3C4CC5CC3C(C1)C(C5)C4C2	> 100 µM (inactive)	> 100 µM (inactive)	> 100 µM (inactive)	> 100 µM (inactive)	> 100 µM (inactive)	> 100 µM (inactive)	> 100 µM (inactive)	–	> 100 µM (inactive)
COc1cc(C2c3cc4c(cc3[C@@H](Nc3cccc(O)c3)C3COC(=O)[C@H]23)OCO4)cc(OC)c1O (some centres not stated)	1.97 µM (inactive)	0.887 µM (active)	3.56 µM (inactive)	8.59 µM (inactive)	0.794 µM (active)	2.55 µM (inactive)	0.766 µM (active)	2.16 µM (inactive)	–
CCN(CCCl)CCCCCNc1c2ccccc2nc2ccc(OC)cc12	0.476 µM (active)	0.184 µM (active)	0.35 µM (active)	–	0.334 µM (active)	0.444 µM (active)	0.251 µM (active)	0.655 µM (active)	–
